Data reported in patent EP0429372A1, “2-Azolyl nicotinate derivatives as herbicides” (RHONE-POULENC AGROCHIMIE, priority 1989, dated 1991).
Where two headings read alike, the source gives them in different places.

Key:
Format in all cases: in vivo
Digitaria sanguinalis = assay: Example B: post-emergence herbicidal application, pot test; settings: 576 h
Description: (§1) Dans des pots de 7 x 7 x 8 cm remplis de terre agricole légère, on sème un nombre de graines déterminé en fonction de l'espèce végétale et de la grosseur de la graine.
(§2) On recouvre ensuite les graines d'une couche de terre d'environ 3 mm d'épaisseur et on laisse germer la graine jusqu'à ce qu'elle donne naissance à une plantule au stade convenable. Le stade de traitement pour les graminées est le stade "deuxième feuille en formation ". Le stade de traitement pour les dicotylédones, est le stade "cotylédons étalés, première feuille vraie en développement".
(§3) Les pots sont alors traités par pulvérisation de bouillie en quantité correspondant à une dose volumique d'application de 500 l/ha et contenant la matière active à la concentration désirée.
(§4) La bouille a été préparée de la même manière qu'à l'exemple A.
(§5) Les pots traités sont ensuite placés dans des bacs destinés à recevoir l'eau d'arrosage, en subirrigation, et maintenus pendant 24 jours à température ambiante sous 70 % d'humidité relative.
(§6) Au bout de 24 jours, on mesure un pourcentage (D) de destruction du nombre de pieds dans le pot traité par rapport au nombre de plantes dans les pots non traités (témoin). On mesure, sur les plantes traitées restantes, le pourcentage de réduction de taille (RT) par rapport aux plantes témoin.
(§7) Le pourcentage du volume foliaire non détruit par le produit est donc donné par la formule : [formula]
(§8) Cette valeur A est transformée en notation de 0 à 5 selon l'échelle suivante :
(§9) Les résultats obtenus sont présentés après le tableau A pour des doses d'application de 4000 g/ha.

Echinochloa crusgalli = assay: as above; settings: 576 h
Description: as §1, §2, §3, §4, §5, §6, §7, §8, §9

Ipomea purpurea = assay: as above; settings: 576 h
Description: as §1, §2, §3, §4, §5, §6, §7, §8, §9

Lolium multiflorum = assay: as above; settings: 4000 g/ha, 576 h
Description: as §1, §2, §3, §4, §5, §6, §7, §8, §9

Sinapis alba [1] = assay: as above; settings: 4000 g/ha, 576 h
Description: as §1, §2, §3, §4, §5, §6, §7, §8, §9

Solanum nigrum [2] = assay: as above; settings: 576 h
Description: as §1, §2, §3, §4, §5, §6, §7, §8, §9

Ipomea pupurea = assay: Example C: selectivity test in major crops, post-emergence application; settings: 576 h
Description: as §1
as §2, with “formation".” for “formation ".”
as §3
(§10) La bouillie a été préparée de la même manière qu'à l'exemple A.
as §5, §6
(§11) Le pourcentage de volume foliaire non détruit par le produit est donc donné par la formule : [formula]
as §8
(§12) Ainsi, un produit est jugé comme sélectif vis à vis de la culture lorsque la valeur A notée est de 0 ou 1.
(§13) Les résultats obtenus sont présentés dans l'exemple C pour des doses d'application comprises entre 0,5 et 4 kg de matière active par hectare selon les produits.

Oryza sativa = assay: as above; settings: crop (Riz), 24 days, score 0-5, 0 or 1 = selective; note: ranges in brackets are in %
Description: as §1
as §2, with “formation".” for “formation ".”
as §3, §10, §5, §6, §11, §8, §12, §13

Sesbania exaltata = assay: as above; settings: 576 h
Description: as §1
as §2, with “formation".” for “formation ".”
as §3, §10, §5, §6, §11, §8, §12, §13

Sinapis alba [3] = assay: as above; settings: 1000 g/ha, 576 h
Description: as §1
as §2, with “formation".” for “formation ".”
as §3, §10, §5, §6, §11, §8, §12, §13

Solanum nigrum [4] = assay: as above; settings: 576 h
Description: as §1
as §2, with “formation".” for “formation ".”
as §3, §10, §5, §6, §11, §8, §12, §13

Triticum aestivum = assay: as above; settings: crop (Blé), 24 days, score 0-5, 0 or 1 = selective; note: ranges in brackets are in %
Description: as §1
as §2, with “formation".” for “formation ".”
as §3, §10, §5, §6, §11, §8, §12, §13

Xanthium pennsylvanicum = assay: as above; settings: 576 h
Description: as §1
as §2, with “formation".” for “formation ".”
as §3, §10, §5, §6, §11, §8, §12, §13

Zea mays = assay: as above; settings: crop (Maïs), 24 days, score 0-5, 0 or 1 = selective; note: ranges in brackets are in %
Description: as §1
as §2, with “formation".” for “formation ".”
as §3, §10, §5, §6, §11, §8, §12, §13

mauvaises herbes [5] = assay: Procedure 1 b): weed control, pre-emergence application; settings: 4000 g/ha (procédé 1B), visual rating 17 to 20 days after spraying, vs control pots
Description: (§14) Des quantités appropriées des composés d'essai ont été dissoutes dans de l'acétone pour obtenir des solutions équivalant à des taux d'application de 250, 1000 ou 4000 g de composé d'essai par hectare (g/ha).
Des graines de mauvaises herbes ont été semées à la surface de compost de mise en pot John Innes N°1 (7 parties par volume de terre végétale stérilisée, 3 parties en volume de gravier fin) dans des pots en matière plastique de 70 mm de côté et 75 mm de profondeur. Les quantités de graines par pot étaient les suivantes :
Les composés de la présente invention ont été appliqués aux graines non recouvertes de la manière décrite dans le paragraphe (a) ci-dessus et ces graines ont été recouvertes avec 25ml de sable liant après pulvérisation. Un seul pot de chaque espèce de mauvaise herbe a été attribué à chaque traitement, en association avec des témoins n'ayant pas subi de pulvérisation et des témoins ayant subi une pulvérisation avec de l'acétone seule. Après traitement, les pots ont été maintenus dans une serre et ont été arrosés par aspersion. L'évaluation visuelle de l'activité de destruction des mauvaises herbes a été effectuée 17 à 20 jours après pulvérisation. Les résultats ont été exprimés par le pourcentage de réduction de croissance ou de mortalité des mauvaises herbes, comparativement aux plantes présentes dans les pots témoins.

mauvaises herbes [6] = settings: post-emergence
Description: as §14
Des espèces de mauvaises herbes ont été cultivées, puis transplantées au stade de jeunes plants de semis dans du compost de mise en pot John Innes N°1 dans des pots en matière plastique de 70 mm de côté et 75 mm de profondeur, sauf en ce qui concerne Avena fatua, qui a été semée directement dans le pot d'essai et n' a pas été transplantée. Puis les plantes ont été cultivées dans la serre jusqu'à ce qu'elles soient prêtes à subir une pulvérisation avec les composés d'essai. Le nombre de plantes par pot et la croissance de la plante au moment de la pulvérisation étaient les suivantes :
Les composés d'essai ont été appliquées aux plantes de la manière décrite dans le paragraphe (a) ci-dessus. Un seul pot de chaque espèce de mauvaises a été attribué à chaque traitement, en association avec des témoins n'ayant pas subi de pulvérisation et des témoins ayant subi une pulvérisation avec de l'acétone seule. Après pulvérisation, les pots ont été arrossés par aspersion, en commençant 24 heures après pulvérisation. L'évalutation visuelle de la lutte contre la croissance des mauvaises herbes a été effectuée 17 à 20 jours après pulvérisation. Les résultats ont été exprimés en pourcentage de réduction de croissance ou de mortalité des mauvaises herbes, comparativement aux plantes présentes dans les pots témoins.

Viola tricolor = assay: Example C: selectivity test in major crops, post-emergence application; settings: 500 g/ha, 576 h
Description: as §1
as §2, with “formation".” for “formation ".”
as §3, §10, §5, §6, §11, §8, §12, §13

Chrysanthemum segetum = settings: post-emergence, 500 g/ha, 576 h
Description: as §1
as §2, with “formation".” for “formation ".”
as §3, §10, §5, §6, §11, §8, §12, §13

Convolvulus arvensis = settings: post-emergence, 500 g/ha, 576 h
Description: as §1
as §2, with “formation".” for “formation ".”
as §3, §10, §5, §6, §11, §8, §12, §13

Polygonum convolvulus = settings: 500 g/ha, 576 h
Description: as §1
as §2, with “formation".” for “formation ".”
as §3, §10, §5, §6, §11, §8, §12, §13

Sinapis alba [7] = assay: Example B: post-emergence herbicidal application, pot test; settings: 1000 g/ha, 576 h

CN(C)S(=O)(=O)n1nc(-c2ccccc2)nc1-c1ncccc1C(=O)O [compound 1, Sel d'isopropylamine de 3 -(3 - carboxy 2 - pyridyl) 2 - N,N dimethyl sulfamoyl 5 - phényl 1,2,4 - triazole]
0 (90 à 100): ACTIVITE DE POST-LEVEE DIG (Digitaria sanguinalis; 4000 g/ha) | ACTIVITE DE POST-LEVEE ECH (Echinochloa crusgalli; 4000 g/ha) | ACTIVITE DE POST-LEVEE LOL (Lolium multiflorum) | ACTIVITE HERBICIDE DE POST LEVEE O R Y (Oryza sativa; dose 1 kg/ha) | ACTIVITE HERBICIDE DE POST LEVEE T R Z (Triticum aestivum; dose 1 kg/ha) | ACTIVITE HERBICIDE DE POST LEVEE Z E A (Zea mays; dose 1 kg/ha)
3 (30 à 50): ACTIVITE DE POST-LEVEE IPO (Ipomea purpurea; 4000 g/ha)
5 (O à 10): ACTIVITE DE POST-LEVEE SIN (Sinapis alba [1]) | ACTIVITE DE POST-LEVEE SOL (Solanum nigrum [2]; 4000 g/ha) | ACTIVITE HERBICIDE DE POST LEVEE S E S (Sesbania exaltata; 1000 g/ha) | ACTIVITE HERBICIDE DE POST LEVEE S I N (Sinapis alba [3]) | ACTIVITE HERBICIDE DE POST LEVEE S O L (Solanum nigrum [4]; 1000 g/ha)
4 (10 à 30): ACTIVITE HERBICIDE DE POST LEVEE I P O (Ipomea pupurea; 1000 g/ha) | ACTIVITE HERBICIDE DE POST LEVEE X A N (Xanthium pennsylvanicum; 1000 g/ha)

C=CCOC(=O)c1cccnc1-c1nc2ccccc2n1S(=O)(=O)N(C)C [compound 101]
≥ 90%: réduction de la croissance d'une ou plusieurs des espèces de mauvaises herbes (mauvaises herbes [5]) | réduction de la croissance d'une ou plusieurs des espèces de mauvaises herbes (mauvaises herbes [6])

CN(C)S(=O)(=O)n1c(-c2ncccc2C(=O)O)nc2ccccc21 [compound 119]
5 (O à 10): ACTIVITE DE POST-LEVEE SOL (Solanum nigrum [2]; 1000 g/ha) | ACTIVITE HERBICIDE DE POST LEVEE S E S (Sesbania exaltata; 500 g/ha) | ACTIVITE HERBICIDE DE POST LEVEE C H Y (Chrysanthemum segetum) | ACTIVITE HERBICIDE DE POST LEVEE P O L (Polygonum convolvulus)
3 (30 à 50): ACTIVITE DE POST-LEVEE IPO (Ipomea purpurea; 1000 g/ha) | ACTIVITE HERBICIDE DE POST LEVEE I P O (Ipomea pupurea; 500 g/ha) | ACTIVITE HERBICIDE DE POST LEVEE V I O (Viola tricolor) | ACTIVITE HERBICIDE DE POST LEVEE X A N (Xanthium pennsylvanicum; 500 g/ha)
4 (10 à 30): ACTIVITE HERBICIDE DE POST LEVEE S O L (Solanum nigrum [4]; 500 g/ha) | ACTIVITE DE POST-LEVEE SIN (Sinapis alba [7])
2 (50 à 70): ACTIVITE HERBICIDE DE POST LEVEE C O N (Convolvulus arvensis)
0 (90 à 100): ACTIVITE DE POST-LEVEE DIG (Digitaria sanguinalis; 1000 g/ha) | ACTIVITE DE POST-LEVEE ECH (Echinochloa crusgalli; 1000 g/ha) | ACTIVITE HERBICIDE DE POST LEVEE O R Y (Oryza sativa; dose 0,5 kg/ha) | ACTIVITE HERBICIDE DE POST LEVEE T R Z (Triticum aestivum; dose 0,5 kg/ha) | ACTIVITE HERBICIDE DE POST LEVEE Z E A (Zea mays; dose 0,5 kg/ha)
